Assay: PK study of SM components in plasma of AIA rats by UPLC-MS/MS (MG vs MPS group)
Settings: for AUC 0-t / AUC 0-∞ / C max / T max / t 1/2 / AUC(0-inf) / Cmax / Tmax / half-life: then oral SM 39.2 g crude drug/kg, plasma, mean ± SEM; for Absorption under the intervention of PS: MPS vs MG group; for Cmax: C max; for Tmax: T max
[1] = MG group: AIA rats, saline 21 days
[2] = MPS group: AIA rats, oral PS 9.8 g crude drug/kg/day 21 days
[3] = MPS group compared with the MG group, AIA rats
[4] = Sprague-Dawley, rat, po, 39.2 g/kg/day, MG group: AIA rats, saline 21 days
[5] = Sprague-Dawley, rat, po, 39.2 g/kg/day, MPS group: AIA rats, oral PS 9.8 g crude drug/kg/day 21 days

Experimental: In the PK study, 12 SD rats were divided into model group (MG group) and model + polysaccharide group (MPS group). Rats in the MPS group were given PS (9.8 g crude drug/kg/day) by oral administration, while rats in the MG group received the same amount of saline. After continuous administration for 21 days, rats in both groups were given SM (39.2 g crude drug/kg/day), and two groups of rats were subjected to a PK study.
The supernatant was collected and dried with N2, redissolved with 100 μL methanol, and centrifuged again after 10 min centrifugation at 4 °C, 13000 rpm. Then the supernatant was collected for UPLC-MS /MS analysis.
The Shimadzu UPLC-MS/MS system was used for the PK study. […] The multiple reaction monitoring (MRM) mode was used both in positive and negative mode. The MS parameters were as follows: flow rate of heating gas 10 L/min, flow rate of drying gas 10 L/min, flow rate of atomizing gas 3 L/min, interfacial temperature 300 ℃, DL temperature 250 ℃.
Separation was performed using a Waters ACQUITY UPLC BEH C18 column (2.1 mm × 100 mm, 1.7 μm). The mobile phase was 0.1% formic acid water (v/v) (A) and acetonitrile (B).

SMILES | AUC 0-t [1] [ng·h/mL] | AUC 0-∞ [1] [ng·h/mL] | C max [1] [ng/mL] | T max [1] [h] | t 1/2 [1] [h] | AUC 0-t [2] [ng·h/mL] | AUC 0-∞ [2] [ng·h/mL] | C max [2] [ng/mL] | T max [2] [h] | t 1/2 [2] [h] | Change of AUC 0-∞ after oral PS [3] | Absorption under the intervention of PS (AIA rats) | also measured
COc1ccc(-c2coc3cc(O[C@@H]4O[C@H](CO)[C@@H](O)[C@H](O)[C@H]4O)ccc3c2=O)cc1O [Calycosin-7-glycoside] | 17.473 ± 2.858 | 18.097 ± 2.629 | 17.607 ± 2.640 | 0.110 ± 0.062 | 2.342 ± 0.959 | 15.987 ± 2.778 | 16.625 ± 2.476 | 15.506 ± 2.308 | 0.083 ± 0.001 | 2.113 ± 0.779 | – | – | –
COC[C@@]12CC[C@H](OC)[C@]34C([C@H]([C@H](OC)[C@H]13)[C@]1(O)[C@H]3[C@@H](OC(=O)c5ccccc5)[C@](O)(C[C@H]34)[C@@H](OC)[C@@H]1O)N(C)C2 [Benzoylhypaconine] | 1.018 ± 0.049 | 1.123 ± 0.062 | 0.467 ± 0.108 | 0.083 ± 0.001 | 3.938 ± 0.322 | 1.394 ± 0.255 | 1.604 ± 0.229 | 0.861 ± 0.160 | 0.083 ± 0.001 | 4.742 ± 0.904 | increased | increased | Change of C max after oral PS [3]: increased
C[C@]12C[C@@H](O)[C@@H]3C[C@@]1(O[C@@H]1O[C@H](CO)[C@@H](O)[C@H](O)[C@H]1O)[C@@]3(COC(=O)c1ccccc1)C(=O)O2 [Albiflorin] | 424.990 ± 55.691 | 458.506 ± 69.994 | 287.831 ± 42.177 | 0.250 ± 0.001 | 2.488 ± 0.458 | 644.268 ± 174.084 | 698.946 ± 175.788 | 306.851 ± 57.880 | 0.139 ± 0.072 | 1.669 ± 0.080 | increased | increased | Change of AUC 0-t after oral PS [3]: increased
CC1(C)[C@@H](O)CC[C@]2(C)[C@H]3C(=O)C=C4[C@@H]5C[C@@](C)(C(=O)O)CC[C@]5(C)CC[C@@]4(C)[C@]3(C)CC[C@@H]12 [Glycyrrhetinic acid] | – | – | – | – | – | – | – | – | – | – | – | – | AUC 0-t (Sprague-Dawley, rat, po, 39.2 g/kg/day, AUC 0-t, MG group: AIA rats, saline 21 days): 28800 ng·h/mL; AUC 0-t (Sprague-Dawley, rat, po, 39.2 g/kg/day, AUC 0-t, MPS group: AIA rats, oral PS 9.8 g crude drug/kg/day 21 days): 30500 ng·h/mL; AUC(0-inf) [4]: 32900 ng·h/mL; AUC(0-inf) [5]: 34500 ng·h/mL; Cmax [4]: 7830 ± 283 ng/mL; Cmax [5]: 11600 ng/mL; Tmax [4]: 2 ± 0.001 h; Tmax [5]: 2 ± 0.001 h; half-life (Sprague-Dawley, rat, po, 39.2 g/kg/day, t 1/2, MG group: AIA rats, saline 21 days): 10.7 ± 3.72 h; half-life (Sprague-Dawley, rat, po, 39.2 g/kg/day, t 1/2, MPS group: AIA rats, oral PS 9.8 g crude drug/kg/day 21 days): 10.8 ± 1.96 h
COC[C@]12CN(C)C3[C@@H]4[C@H](OC)[C@H]1[C@@]3([C@@H](OC)C[C@H]2O)[C@@H]1C[C@@]2(O)[C@H](OC(=O)c3ccccc3)[C@@H]1[C@]4(O)[C@@H](O)[C@@H]2OC [Benzoylmesaconitine] | 21.413 ± 1.140 | 23.447 ± 1.422 | 14.305 ± 3.689 | 0.139 ± 0.079 | 3.530 ± 0.873 | 25.368 ± 7.147 | 25.465 ± 7.145 | 15.899 ± 4.818 | 0.083 ± 0.001 | 1.723 ± 0.296 | – | – | –
O=C1C[C@@H](c2ccc(O)cc2)Oc2cc(O)ccc21 [Liquiritigenin] | 48.549 ± 6.497 | 49.404 ± 6.315 | 25.519 ± 7.560 | 0.139 ± 0.079 | 1.841 ± 0.242 | 47.195 ± 4.360 | 47.548 ± 4.374 | 23.367 ± 4.695 | 0.083 ± 0.001 | 1.448 ± 0.025 | – | – | –
